Measurements reported in paper PMC7756445, “A Novel Prodrug of a nNOS Inhibitor with Improved Pharmacokinetic Potential” (Chemmedchem, 2020).

Assays:
[1] = target: T1, bovine eNOS (Bos taurus, UniProt P29473); experiment: NOS inhibition, L-Arg to L-Cit conversion by HPLC with fluorescence detection; format: biochemical; details: at 10 μM
T1 construct: purchased Cayman Chemicals (Ann Arbor, Michigan, USA)
Procedure: (§1) The amidoxime 2 was evaluated for its in vitro NOS inhibitory activity, by measuring the conversion of L‐Arg to L‐Cit, using a validated HPLC method with fluorescence detection, as previously reported.[ ^39 , ^40 , ^41 ] The human nNOS and iNOS inhibition percent were calculated at 1 μM, while bovine eNOS inhibition was evaluated at 10 μM in order to have an assessment of compound selectivity toward eNOS. Considering the highly conserved primary sequence (>90 %) between the human and bovine eNOS, this latter extremely resembles the human isozyme. In particular, there is only one amino acid variation in a hydrophobic pocket that is on the outside of the heme active site. Therefore the different source of eNOS is usually well accepted and should not affect the inhibitor evaluation. ^[42]
(§2) Recombinant human iNOS and nNOS, were purchased from Enzo Life Sciences, Inc. (New York, USA), while bovine recombinant eNOS was purchased from Cayman Chemicals (Ann Arbor, Michigan, USA). HPLC analyses were performed using a Waters system composed of a P600 model pump, a 2475 multi‐fluorescence detector, and a 7725i model sample injector (Rheodyne, Cotati, CA, USA) equipped with a 5 μL loop. The column was a XTerra MS C8 (250×4.6 mm i.d., […]; Waters). A column thermostat oven module Igloo‐Cil (Cil Cluzeau Info Labo, France) was used. Chromatograms were recorded on a Fujitsu Siemens Esprimo computer and data were processed by the Empower Pro software (Waters). The appropriate mobile phase was prepared daily, filtered through a 0.45 μm WTP membrane (Whatman, Maidstone, UK), sonicated and degassed before use. Column temperature was kept constant at 20 °C. All assays were performed in triplicate.
(§3) Enzymes were diluted in 2‐[4‐(2‐hydroxyethyl)piperazin‐1‐yl]ethanesulfonic acid (HEPES) buffer (pH 7.4) to obtain iNOS and nNOS 2.5 μg/mL stock solutions, and eNOS 300 μg/mL stock solution. To measure iNOS activity, 10 μL of iNOS stock solution were added to 80 μL of HEPES buffer at pH 7.4, containing 0.1 mM CaCl2, 1 mM D,L‐dithiothreitol (DTT), 0.5 mg/mL bovine serum albumin (BSA), 10 μM flavin mononucleotide (FMN), 10 μM flavin adenine dinucleotide (FAD), 30 μM tetrahydrobiopterin (BH4), 10 μg/mL calmodulin (CaM) and 10 μM L‐Arg. To measure eNOS and nNOS activities, 25 μL of enzyme stock solution were added to 75 μL of HEPES buffer pH 7.4, containing 2 mM CaCl2, 1 mM DTT, 0.5 mg/mL BSA, 10 μM FMN, 10 μM FAD, 30 μM BH4, 10 μg/mL CaM and 10 μM L‐Arg. Then, 10 μL of a 10 μM (iNOS and nNOS assay) or 100 μM (eNOS assay) solution of the test compound was added to the enzyme assay solution, followed by pre‐incubation of 15 min at 37 °C. The reaction was initiated by the addition of 10 μL of nicotinamide adenine dinucleotide phosphate (NADPH) 7.5 mM (iNOS) or 10 mM (eNOS and nNOS), carried out at 37 °C for 20 min, and stopped by adding 500 μL of ice‐cold CH3CN. The mixture was brought to dryness under vacuum and eventually stored at −20 °C, before the fluorescence derivatization. The o‐phthalaldehyde‐N‐acetylcysteine (OPA/NAC) reagent for fluorescence derivatization was prepared with the molar ratios of 1 : 3, reacting 5 mL of methanolic OPA solution and 20 mL of 0.2 M borate buffer containing 0.1 g of NAC for 90 min to final pH 9.3±0.05. The OPA/NAC solution was stored at 4 °C and saved for no longer than seven days. […] The fluorescence reaction is realized stirring 190 μL of supernatant and 60 μL of OPA/NAC solution for 5 min. […]

[2] = target: T2, human iNOS (Homo sapiens, UniProt P35228); experiment: as above; format: biochemical; details: at 1 μM
T2 construct: purchased Enzo Life Sciences, Inc. (New York, USA)
Procedure: as §1, §2, §3

[3] = target: T3, human nNOS (Homo sapiens, UniProt P29475); experiment: as above; format: biochemical; details: read-out: nNOS enzymatic inhibition
T3 construct: purchased Enzo Life Sciences, Inc. (New York, USA)
Procedure: as §1, §2, §3

[4] = PAMPA-GI assay; design: Papp at 2 h: dose or concentration left out as unconfirmed; details: for Papp at 2 h: PAMPA
Procedure: The relative passive transcellular diffusion of compounds, expressed as permeability coefficient (Pe), was determined with a permeability equation. ^[45] The permeabilities of 1, 2, and 1400 W were determined at pH 5.0, 6.5, and 7.4 to mimic the physiological conditions of the GI tract (Table 1). […] As the new prodrug was designed for the potential treatment of neurodegenerative diseases, an important parameter is its capability to cross the BBB.
Each donor filtration plate well, carefully impregnated with 5 µL of this solution, was added of 150 μL of […] test compound buffer solutions (phosphate buffer for pH 7.4 and pH 6.5 and hydrochloric acid buffer for pH 1.4). Subsequently, the drug‐filled donor plate was placed onto the acceptor plate prefilled with the same buffer (300 μL) as the acceptor solution. Once replaced the plate lid, the resulting assembled donor‐acceptor plates were incubated at room temperature for 2 h. The concentration in the acceptor and donor solutions were determined by HPLC. The Pe was determined as previously reported. ^[47]

eNOS inhibition (in words) [1]: not able to inhibit
eNOS inhibition (in words) ([1]; listed as amidoxime): inactivity
iNOS inhibition (in words) [2]: not able to inhibit
iNOS inhibition (in words) ([2]; listed as amidoxime): inactivity
inhibition at 1 µM [3]: 53%
Papp at 2 h ([4]; pH 1.4): 0.66 ×10⁻⁶ cm/s
Papp at 2 h ([4]; pH 6.5): 1.57 ×10⁻⁶ cm/s
Papp at 2 h ([4]; pH 7.4): 2.03 ×10⁻⁶ cm/s
PAMPA-GI Pe (bound stated in text) ([4]; pH 6.5): > 1.5×10^−6
PAMPA-GI Pe (bound stated in text) ([4]; pH 7.4): > 1.5×10^−6
melting point: 112 to 115 °C
SMILES: C/C(=N\O)NC(c1ccccc1)c1ccccc1 [Compound 2, (1E)‐N‐(diphenylmethyl)‐N′‐hydroxyethanimidamide]
